Reference: patent US20230234936A1, “COMPOUND FOR TARGETING AND DEGRADING PROTEIN, AND PREPARATION METHOD THEREFOR AND USE THEREOF” (SHANGHAI LEADINGTAC PHARMACEUTICAL CO., LTD., priority 2020, published 2023)

Columns and labels:
[1] = biological target: T1, IRAK4 protein in THP-1 cells (Homo sapiens, UniProt Q9NWZ3); assay: Degradation of IRAK4 in THP-1 cells (Western blot); assay type: cell-based; details: 24 hours, compound 1-3000 nM
T1 construct: endogenous in cells; host or cells: THP-1
T1 sequence (Q9NWZ3 1-460): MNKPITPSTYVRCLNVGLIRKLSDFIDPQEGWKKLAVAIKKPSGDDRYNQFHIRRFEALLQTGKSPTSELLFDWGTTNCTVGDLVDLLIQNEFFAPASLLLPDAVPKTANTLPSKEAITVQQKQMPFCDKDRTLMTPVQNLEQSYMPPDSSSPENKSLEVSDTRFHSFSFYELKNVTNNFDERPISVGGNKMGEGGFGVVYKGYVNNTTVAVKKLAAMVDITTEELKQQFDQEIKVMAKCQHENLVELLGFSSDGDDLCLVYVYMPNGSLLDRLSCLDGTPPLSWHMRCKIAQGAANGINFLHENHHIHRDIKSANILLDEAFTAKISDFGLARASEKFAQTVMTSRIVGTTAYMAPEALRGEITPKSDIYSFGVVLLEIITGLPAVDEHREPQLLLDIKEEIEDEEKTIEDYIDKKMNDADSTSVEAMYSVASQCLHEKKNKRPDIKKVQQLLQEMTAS
Method in brief: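 THP-1 cells (5×10^5/well) treated 24 h with compound at 1–3000 nM final. IRAK4 in lysates quantified by Western blot, normalized to internal reference and compared with control to give degradation rate; DC50 and Dmax from nonlinear fit of log concentration.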

[2] = biological target: T2, IRAK4 kinase (Homo sapiens, UniProt Q9NWZ3); assay: IRAK4 kinase activity test (KinEASE-STK S1 HTRF kit); assay type: biochemical; details: 2.5 nM kinase, 1 μM biotinylated polypeptide substrate, 7 μM ATP, 37° C. 120 min
T2 sequence (Q9NWZ3 1-460): T1 sequence (Q9NWZ3 1-460)
Method in brief: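 Compound in DMSO, serially diluted to 10000–0.038 nM final, incubated with 2.5 nM kinase, 1 μM biotinylated peptide substrate and 7 μM ATP at 37° C for 120 min. Eu-anti-phospho-Ser/Thr antibody plus streptavidin-XL665 stopped the reaction (1 h RT). HTRF 665/620 nm ratio gave % inhibition versus control; IC50 from nonlinear log-concentration fit.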

| Compound | DC50 [1] [nM] | Dmax [1] [%] | IC50 [2] [nM] |
| --- | --- | --- | --- |
| COc1cc2nn(C3CCN(CCCC4CCN(C(=O)c5ccc(OC)c(N6CCC(=O)NC6=O)c5)CC4)CC3)cc2cc1NC(=O)c1cccc(C(F)(F)F)n1 [Example 18, N-(2-(1-(3-(1-(3-(2,4-dioxotetrahydro-pyrimidin-1 (2H)-yl)-4-me-thoxybenzoyl)piperidin-4-yl)propyl)piperidin-4-yl)-6-methoxy-2H-in-dazol-5-yl)-6-(trifluorometh-yl) pyridinecarbox-amide] | 7.1 | 99.4 | 9.6 |
| CC(C)(O)c1cc2nn(C3CCN(CCC4CC5(CCN(C(=O)c6ccc(Cl)c(N7CCC(=O)NC7=O)c6)CC5)C4)CC3)cc2cc1NC(=O)c1cccc(C(F)(F)F)n1 [Example 27] | 3.5 | 96.3 | 13.8 |
| COc1ccc(C(=O)N2CCC(OCCN3CCC(n4cc5cc(NC(=O)c6cccc(C(F)(F)F)n6)c(C(C)(C)O)cc5n4)CC3)CC2)cc1N1CCC(=O)NC1=O [Example 23, N-(2-(1-(2-((1-(3-(2,4-dioxotetrahydro-pyrimidin-1 (2H)-yl)-4-me-thoxybenzoyl)piperidin-4-yl)oxy)ethyl)piperdin-4-yl)-6-(2-hydroxyprop-2-yl)-2H-inda-zol-5-yl)-6-(triflu-oromethyl) pyridinecarbox-amide] | 32.4 | 97.6 | 8.5 |
| COc1cc2nn([C@H]3CC[C@H](CN(C)CC4CCN(C(=O)c5ccc(Cl)c(N6CCC(=O)NC6=O)c5)CC4)CC3)cc2cc1NC(=O)c1cccc(C(F)(F)F)n1 [Example 51, N-(2-((1r,4r)-4-((((1-(4-chloro-3-(2,4-dioxotetrahydro-pyrimidin-1 (2H)-yl)benzoyl)piperdin-4-yl)methyl) (methyl)amino)methyl)cyclohexyl)-6-methoxy-2H-inda-zol-5-yl)-6-(tri-fluoromethyl) pyridinecarbox-amide] | 27.5 | 95.4 | 11.3 |
| COc1ccc(C(=O)N2CCC(CCN3CCC(n4cc5cc(NC(=O)c6cccc(C(F)(F)F)n6)c(C(C)(C)O)cc5n4)CC3)CC2)cc1N1CCC(=O)NC1=O [Example 7, N-(2-(1-(2-(1-(3-(2,4-dioxotetrahydropyrimidin-1 (2H)-yl)-4-methoxybenzoyl)piperidin-4-yl)ethyl)piperidin-4-yl)-6-(2-hydroxyprop-2-yl)-2H-indazol-5-yl)-6-(trifluoromethyl) pyridinecarboxamide] | 9.4 | 95.5 | 5.9 |
| CN(CC1CCN(C(=O)c2ccc(Cl)c(N3CCC(=O)NC3=O)c2)CC1)C[C@H]1CC[C@H](n2cc3cc(NC(=O)c4cccc(C(F)(F)F)n4)c(C(C)(C)O)cc3n2)CC1 [Example 62] | 5.6 | 92.3 | 6.9 |
| CCOc1ccc(C(=O)N2CCC3(CC2)CC(CCN2CCC(n4cc5cc(NC(=O)c6cccc(C(F)(F)F)n6)c(C(C)(C)O)cc5n4)CC2)C3)cc1N1CCC(=O)NC1=O [Example 25] | 0.82 | 98 | 13.7 |
| COc1cc2nn([C@H]3CC[C@H](CN4CCC5(CC4)CCN(C(=O)c4ccc(Cl)c(N6CCC(=O)NC6=O)c4)CC5)CC3)cc2cc1NC(=O)c1cccc(C(F)(F)F)n1 [Example 50, N-(2-((1r,4r)-4-((9-(4-chloro-3-(2,4-dioxotetrahydropyrim-idin-1 (2H)-yl)benzoyl)-3,9-diazaspiro[5.5]undec-3-yl)methyl)cyclohexyl)-6-methoxy-2H-inda-zol-5-yl)-6-(tri-fluoromethyl) pyridinecarbox-amide] | 5.6 | 97 | 7.2 |
| COc1cc2nn(C3CCN(CCCN4CCN(C(=O)c5ccc(OC)c(N6CCC(=O)NC6=O)c5)CC4)CC3)cc2cc1NC(=O)c1cccc(C(F)(F)F)n1 [Example 19, N-(2-(1-(3-(4-(3-(2,4-dioxotetrahydro-pyrimidin-1 (2H)-yl)-4-me-thoxybenzoyl)piperazin-1-yl)propyl)piperidin-4-yl)-6-methoxy-2H-in-dazol-5-yl)-6-(trifluorometh-yl) pyridinecarbox-amide] | 13.4 | 92.8 | 16.9 |
